This is an account of results in article PMC12505902, “Inhibitors of trehalose-6-phosphate synthase activity in fungal pathogens compromise thermal tolerance pathways” (mBio, 2025).

Holding throughout (experiment): Fungicidal spot assay on compound-free YPD plates
Holding throughout (format): cell-based

The test system of assay [1] is C. deneoformans. On the procedure:
(§1) Fig 4 4456dh inhibits the growth of Candida and Cryptococcus species. Two-fold dose response assays were performed against (A) C. albicans at 42°C and C. auris at 39°C, (B) C. glabrata at 42°C, and (C) C. neoformans, C. deneoformans, and C. gattii at 37°C. 4456dh was administered at the concentrations indicated. Cultures were grown in YPD at the listed temperatures for 48 hours for Candida species and 72 hours for Cryptococcus species. Experimental temperatures reflect the temperatures at which the fungi experience heat stress. Left: relative growth of treated samples was calculated by averaging technical triplicates and normalizing the OD600 of each treated well to the average OD600 of the untreated WT controls, after the absorbance due to the compound was subtracted. The MIC80 values, calculated based on the OD600 values, are indicated in the white text on each heat map. Right: representative spot assays show the ability of cells to grow after exposure to 4456dh and indicate fungicidal activity of 4456dh. TEXT PRINTED IN THE PICTURE: (A) 4456dh: C. albicans 42 °C: 13 mM; C. auris 39 °C: 7 mM | (B) 4456dh: C. glabrata 42 °C: 7.8 μM | (C) 4456dh: C. neoformans 37 °C: 7 mM; C. deneoformans 37 °C: 3 mM; C. gattii 37 °C: 7 mM DOUBTS OF THE COPYIST ABOUT THIS PICTURE: 4456dh, all panels: the picture prints no measure name with the white values on the heat maps, so each value is given only with its organism and temperature
(§2) We next tested the activity of 4456dh on Cryptococcus species at 37°C.
(§3) 123 hours. […]
(§4) 126 medium. Growth was plotted as a heat map using Excel.
(§5) 127 Wild-t y pe C. neoformans strains H99, wild-type C. deneoformans JEC21 and wild- t y pe C. gattii
(§6) 128 R265 were cultured overnight in YPD (yeast-peptone- dextrose) medium at 30 °C. Growth of the
(§7) 129 overnight cultures was quantified by measuring the OD600 and corrected for the background
(§8) 130 absorbance of the medium. Antifungal potency for 4456dh was assessed by minimum inhibitory
(§9) 131 concentration (MIC) dose-response assays performed under standard Clinical and Lab Standards
(§10) 132 Institute (CLSI) conditions. A volume of 125 µL from each cell suspension was dispensed into the
(§11) 133 wells of 96-well flat-bottom microtiter plates (Corning). An additional 25 µL of 4456dh from a series
(§12) 134 of dilutions from the 157 mM stock solution prepared in water was added to each well. Following […]
(§13) 137 replicates. Growth, as determined by a reading of absorbance at 600 nm, was normalized to
(§14) 138 untreated controls and was corrected for the absorbance of 4456dh in the YPD medium. […]
(§15) 139 minimum inhibitory concentration causing 80% growth reduction, or MIC80, was determined based […]
(§16) 157 Optical density (OD600) was determined with an Infinite PRO plate reader ( Tecan). […]

Assay [2] relates to C. neoformans. Particulars: 37°C exposure. On the procedure: as §1, §2, §3, §4, §5, §6, §7, §8, §9, §10, §11, §12, §13, §14, §15, §16
In assay [3] the test system is C. gattii. The following applies: 37°C exposure. The procedure:
as §1, §2, §3, §4, §5, §6, §7, §8, §9, §10, §11, §12, §13, §14, §15, §16

The subject of assay [4] is C. auris. Particulars: 30°C and 39°C exposure. The procedure: (§17) We tested the effects of 4456dh on live cells by determining the minimal inhibitory concentration causing 80% growth reduction (MIC80). Wild-type (WT) C. albicans and C. auris cells were incubated with 4456dh in yeast-peptone-dextrose (YPD) medium at 42°C and 39°C, respectively (Fig. 4A). […] 4456dh inhibited the growth of C. auris with an MIC80 of 7 mM at 39°C (Fig. 4A). The MIC80 increased at 30°C to greater than 13 mM (Fig. S7A).
(§18) Fig 4 4456dh inhibits the growth of Candida and Cryptococcus species. Two-fold dose response assays were performed against (A) C. albicans at 42°C and C. auris at 39°C, (B) C. glabrata at 42°C, and (C) C. neoformans, C. deneoformans, and C. gattii at 37°C. 4456dh was administered at the concentrations indicated. […] Left: relative growth of treated samples was calculated by averaging technical triplicates and normalizing the OD600 of each treated well to the average OD600 of the untreated WT controls, after the absorbance due to the compound was subtracted. The MIC80 values, calculated based on the OD600 values, are indicated in the white text on each heat map. […]
(§19) 124 technical replicates. Growth, as determined by a reading of absorbance at 600 nm, was
(§20) 125 normalized to untreated controls and was corrected for the absorbance of 4456dh in the YPD […]
as §7
(§21) 130 absorbance of the medium. […]

Assay [5] deals with C. albicans. Particulars: 42°C exposure, then compound-free YPD plates. The procedure: as §17, §18, §19, §20, §7, §21

For the compound `Cn1cc(-c2csc(NC(=O)Cc3ccccn3)n2)cn1` [Compound 4456dh], the fungicidal activity entry in assay [1] (30°C, 13 mM 4456dh) was “displayed fungicidal activity”; in assay [1] (37°C exposure), “Fungicidal activity of 4456dh was also detected”; in assay [2], “Fungicidal activity of 4456dh was also detected”; in assay [3], “Fungicidal activity of 4456dh was also detected”; in assay [4] it was “fungicidal activity of 4456dh on C. auris was also detected”; in assay [5], “temperature-dependent fungicidal activity”.
